Measured values published in patent US20110269699A1, “CANCER THERAPY” (priority 2008, published 2011).

Legend:
[1] = system: 226Eμ-myc/Bcl-2 lymphomas; experiment: Cell cycle analysis of Eμ-myc/Bcl-2 cells treated with HDACi; type: cell-based, mouse; settings: 226/Bcl-2
Method: (§1) Next, the cell cycle profiles of Eμ-myc/Bcl-2 lymphomas treated with oxamflatin and romidepsin over 3 days were assessed.
(§2) […] Viability of cells as measured by trypan blue exclusion assay, propidium iodide uptake, Annexin V staining, cell cycle analysis, or tetramethylrhodamine ethyl ester staining were done as described (Lindemann et al., Proc. Nat. Acad. Sci. USA 104:8071-8078, 2007).

[2] = system: 4242Eμ-myc/Bcl-2 lymphomas; experiment: as above; type: cell-based, mouse; settings: 4242/Bcl-2
Method: as §1, §2

[3] = system: 4242Eμ-myc/Bcl-2 lymphomas; experiment: In vitro cell death analysis, time course; type: cell-based, mouse; settings: 3.0 nmol/L; up to 72 h
From the text: (§3) The primary function of prosurvival Bcl-2 proteins is to inhibit the activity of Bak and Bax proteins and thereby protect the mitochondrial membrane from damage (Cory et al., Nat. Rev. Cancer 2:647-656, 2002). To determine if the induction of apoptosis mediated by romidepsin in 4242Eμ-myc/Bcl-2 and 229Eμ-myc/Bcl-2 lymphomas was via perturbation of the mitochondrial membrane or through some other mechanism, HDACi-induced mitochondrial outer membrane permeabilization (MOMP) was quantitated by staining with tetramethylrhodamine ethyl ester (Molecular Probes).
as §2

[4] = system: 229Eμ-myc/Bcl-2 lymphomas; experiment: In vitro cell death analysis, time course; type: cell-based, mouse
From the text: as §3, §1
(§4) Eμ-myc lymphoma cells (5×10^5/mL) were incubated in the presence of the indicated compounds for 20 h in 1 mL cell culture medium in 24-well plates (Greiner Bio-One). Viability of cells as measured by trypan blue exclusion assay, propidium iodide uptake, Annexin V staining, cell cycle analysis, or tetramethylrhodamine ethyl ester staining were done as described (Lindemann et al., Proc. Nat. Acad. Sci. USA 104:8071-8078, 2007).

4242Eμ-myc lymphomas = experiment: In vitro cell death analysis (parental control of the Bcl-XL experiment); type: cell-based, mouse
Method: (§5) To determine if increased expression of Bcl-XL could confer resistance to romidepsin, 4242Eμ-myc/Bcl-XL lymphomas were produced and tested for sensitivity to HDACi.
as §4

[5] = system: 4242Eμ-myc/Bcl-XL lymphomas; experiment: In vitro cell death analysis of Bcl-XL overexpressing lymphomas; type: cell-based, mouse
From the text: as §5, §2

[6] = system: 102Eμ-myc/Bcl-2 lymphomas; experiment: In vivo apoptosis assay; design: species or system C57BL/6 mice; settings: 5.6 mg/kg i.v.; even at 48 h
Method: (§6) For in vivo apoptosis assays, C57BL/6 mice were injected with Eμ-myc lymphomas (5×10^5 cells per animal) and after 10 to 15 days on which lymph nodes became well-palpable romidepsin (5.6 mg/kg) was administered i.v. After the indicated time points, mice were sacrificed and cells were harvested from brachial lymph nodes for fluorescence-activated cell sorting-based assays to measure apoptotic signaling (Lindemann et al., Proc. Nat. Acad. Sci. USA 104:8071-8078, 2007). To assess therapeutic efficacy of romidepsin, C57BL/6 mice were injected with Eμ-myc lymphomas of the indicated genotypes i.v. (5×10^5 cells per animal). Peripheral WBC counts were then monitored until they exceeded 13×10^3/μL (Sysmex Hematology Analyzer K-1000) and romidepsin was administered at 5.6 mg/kg i.v. once every 4 days for a total of four injections. […] Mice in the control cohort received the corresponding amount of vehicle. Cohorts consisted of 8 to 11 mice each, 2 to 3 independently derived lymphomas per genotype. Peripheral WBC counts and body weights were recorded weekly. On signs of major distress or when lymphomas were relapsing as indicated by enlarged brachioaxial lymph nodes, mice were euthanized and a necropsy was done. For analysis of therapeutic efficacy, tumor-induced mortality “events” were recorded. Kaplan-Meier analysis was done and comparisons made using the log-rank (Mantel-Cox) test (MedCalc software version 8.0.2.0).

[7] = system: 226Eμ-myc/Bcl-2 lymphomas; experiment: In vivo apoptosis assay; design: species or system C57BL/6 mice; settings: 5.6 mg/kg i.v.; even at 36 h
Method: as §6

[8] = system: 229Eμ-myc/Bcl-2 lymphomas; experiment: In vivo apoptosis assay; design: species or system C57BL/6 mice; settings: 5.6 mg/kg i.v.; later time points (>24 h)
Method: as §6

[9] = system: 4242Eμ-myc/Bcl-2 lymphomas; experiment: In vivo apoptosis assay; design: species or system C57BL/6 mice; settings: 5.6 mg/kg i.v.; later time points (>24 h)
Method: as §6

Eμ-myc lymphomas = experiment: In vivo apoptosis assay; design: species or system C57BL/6 mice; settings: all four Eμ-myc lymphomas in lymph nodes; 5.6 mg/kg i.v.; 24-h time course
Method: as §6

Eμ-myc/Bcl-2 lymphomas = experiment: In vivo apoptosis assay; design: species or system C57BL/6 mice; settings: all four Eμ-myc/Bcl-2 lymphomas; 5.6 mg/kg i.v.; 24 h after exposure
Method: as §6

[10] = Maximum tolerated dose in lymphoma-bearing mice; settings: i.v. once every 4 days for a total of four injections
Method: For in vivo apoptosis assays, C57BL/6 mice were injected with Eμ-myc lymphomas (5×10^5 cells per animal) and after 10 to 15 days on which lymph nodes became well-palpable romidepsin (5.6 mg/kg) was administered i.v. After the indicated time points, mice were sacrificed and cells were harvested from brachial lymph nodes for fluorescence-activated cell sorting-based assays to measure apoptotic signaling (Lindemann et al., Proc. Nat. Acad. Sci. USA 104:8071-8078, 2007). To assess therapeutic efficacy of romidepsin, C57BL/6 mice were injected with Eμ-myc lymphomas of the indicated genotypes i.v. (5×10^5 cells per animal). Peripheral WBC counts were then monitored until they exceeded 13×10^3/μL (Sysmex Hematology Analyzer K-1000) and romidepsin was administered at 5.6 mg/kg i.v. once every 4 days for a total of four injections. […] Mice in the control cohort received the corresponding amount of vehicle. Cohorts consisted of 8 to 11 mice each, 2 to 3 independently derived lymphomas per genotype. Peripheral WBC counts and body weights were recorded weekly. On signs of major distress or when lymphomas were relapsing as indicated by enlarged brachioaxial lymph nodes, mice were euthanized and a necropsy was done. For analysis of therapeutic efficacy, tumor-induced mortality “events” were recorded. […]

[11] = increasing concentrations over 24 h

Substance: (1S,4S,10S,16E,21R)-7-[(2Z)-ethylidene]-4,21-diisopropyl-2-oxa-12,13-dithia-5,8,20,23-tetraazabicyclo[8.7.6]tricos-16-ene-3,6,9,19,22-pentanone [Romidepsin]
- % G1 ([1]; 24 hr): 48.6%
- % G2/M ([1]; 24 hr): 26.6%
- % S phase ([1]; 24 hr): 16.4%
- % subG1 ([1]; 24 hr): 3.7%
- % G1 ([1]; 48 hr): 52.3%
- % G2/M ([1]; 48 hr): 27.1%
- % S phase ([1]; 48 hr): 13.5%
- % subG1 ([1]; 48 hr): 3.7%
- % G1 ([1]; 72 hr): 78.3%
- % G2/M ([1]; 72 hr): 8.7%
- % S phase ([1]; 72 hr): 2.5%
- % subG1 ([1]; 72 hr): 7.8%
- % G1 ([2]; 24 hr): 66.3%
- % G2/M ([2]; 24 hr): 11.4%
- % S phase ([2]; 24 hr): 2.1%
- % subG1 ([2]; 24 hr): 19.3%
- % G1 ([2]; 48 hr): 53.2%
- % G2/M ([2]; 48 hr): 8.5%
- % S phase ([2]; 48 hr): 4.6%
- % subG1 ([2]; 48 hr): 27.2%
- % G1 ([2]; 72 hr): 34.8%
- % G2/M ([2]; 72 hr): 7.1%
- % S phase ([2]; 72 hr): 3.0%
- % subG1 ([2]; 72 hr): 55.3%
- cell killing in time course [3]: could kill
- cell killing in time course ([4]; 3.0 nmol/L, up to 72 h): could kill
- DNA fragmentation (sub-G1) indicative of apoptosis ([4]; over 3 days, data not shown): increase in the percentage of cells showing DNA fragmentation
- plasma membrane integrity and mitochondrial function (4242Eμ-myc lymphomas; [11]): dose-dependent loss of plasma membrane integrity and mitochondrial function
- cell cycle analysis: DNA fragmentation (4242Eμ-myc lymphomas; increasing doses): DNA fragmentation occurred
- cell killing in time course (4242Eμ-myc lymphomas; parental Eμ-myc lymphomas, within the first 24 h, 3 nmol/L romidepsin or 0.1 μmol/L oxamflatin): effectively killed
- plasma membrane integrity and mitochondrial function [5, 11]: unaffected
- cell cycle analysis ([5]; increasing doses): arrested in the G1 phase
- apoptosis in vivo [6]: remained insensitive
- apoptosis in vivo [7]: remained insensitive
- apoptosis in vivo [8]: did undergo apoptosis at later time points
- apoptosis in vivo [9]: did undergo apoptosis at later time points
- apoptosis in vivo (outer cell membrane damage, DNA fragmentation) (Eμ-myc lymphomas): sensitive to romidepsin
- apoptosis in vivo (Eμ-myc/Bcl-2 lymphomas): resistant to romidepsin-induced apoptosis
- maximum tolerated dose [10]: 5.6 mg/kg
